# Assay results as given in patent US4469786A (priority 1981, dated 1984).
# Experiments:
# [1] = test system: Salmonella tester strains; conditions: literature (McCann, Bartsch, Glatt); cited from earlier work
# [2] = test system: single-stranded .phi.105 DNA
# [3] = test system: replicative-form .phi.105DII:6C DNA; assay: gene linkage disruption in the marker rescue assay with .phi.105DII:6C DNA; conditions: PO, same conditions as Example 5 (25 to 100 mM)
# DNA [4] = conditions: cited from earlier work
# DNA [5] = conditions: transformation-based assay of Phillips et al.; cited from earlier work
structure (smiles),measurement,setting,value
ClC1=C(Cl)[C@]2(Cl)[C@@H]3[C@@H]4C[C@@H]([C@H]5O[C@@H]45)[C@@H]3[C@@]1(Cl)C2(Cl)Cl [dieldrin],mutagenicity in the Ames assay,[1],not mutagenic in the Ames assay
ClC(Cl)Cl [CHCl3],mutagenicity in the Ames assay,[1],not mutagenic in the Ames assay
CC/C(=C(/CC)c1ccc(O)cc1)c1ccc(O)cc1 [diethylstilbestrol],mutagenicity in the Ames assay,[1],not mutagenic in the Ames assay
"CC1CO1 (centres unmarked) [PO, propylene oxide]",frequency of clear PFU at the highest concentration,[2],a decrease in the frequency of clear PFU
same,marker rescue activity,[2],No consistent decrease in marker rescue activity
same,significance (p) of increase in frequency of clear PFU,[2],< 0.001
same,disruption of linkage between J^+ allele and DII:6C mutation,[3],no significant disruption of linkage
same,lesion in DNA / reactivity with DNA,DNA [4],reacts with guanine and adenine residues but has also been claimed to react with the phosphodiester backbone of DNA producing strand scissions
same,strand scission,DNA [5],PO-induced strand scission which was observed
"CC(=O)ON(C(C)=O)c1ccc2c(c1)Cc1ccccc1-2 [AAAF, N-acetyl-N-acetoxy-2-aminofluorine]","frequency of clear PFU, earliest sample",[2],there appeared to be an increase in the frequency of clear PFU
same,"marker rescue activity, subsequent samples",[2],very rapid and extensive loss of marker rescue activity
same,numbers of clear-plaque mutants generated,"[2]; 35 mM AAAF, 37° C., 1-9 min., Hcr^+ recipient GB68, FIG. 6",increased with length of AAAF treatment
same,"frequency of clear-plaque mutants, subsequent samples","[2]; 35 mM AAAF, 37° C., subsequent samples, Hcr^- recipient GB7075",concomitant decrease in the frequency of clear-plaque mutants
same,lesion in DNA / reactivity with DNA,DNA [4],potent frameshift mutagen which forms two different guanine adducts
"O=CCCl [CAA, chloroacetaldehyde]",lesion in DNA / reactivity with DNA,DNA [4],reacts with adenines and cytosines to form imidazonucleoside derivatives
ClC(Cl)(Cl)Cl [CCl4],mutagenicity in the Ames assay,[1],not mutagenic in the Ames assay
ClC(Cl)=C(c1ccc(Cl)cc1)c1ccc(Cl)cc1 [DDE],mutagenicity in the Ames assay,[1],not mutagenic in the Ames assay
"NO [HA, hydroxylamine]",marker rescue activity,[2],loss of marker rescue activity
same,frequency of clear PFU/total PFU (capacity of treated DNA to generate clear-plaque mutants),"[2]; 1M HA, single-stranded DNA, 45° C., 0-60 minutes, GB68, FIG. 2",A time dependent increase in the capacity of the treated DNA to generate clear-plaque mutants
same,lesion in DNA / reactivity with DNA,DNA [4],induces predominantly guanine-cytosine to adenine-thymine transitions
